Experimental findings from PMC4992173, “Divergent synthesis and identification of the cellular targets of deoxyelephantopins” (Nature Communications, 2016) are described below.

This experiment concerns the target T1, Thioredoxin domain-containing protein 12 (TXNDC12) (Homo sapiens, UniProt O95881).
T1 construct: endogenous in cells; host or cells: MCF7
Nature of the experiment: In situ competitive profiling in live MCF7 cells (LFQ): TXNDC12. It is filed as cell-based. Conditions: 4 h, then 10 µM 24c, n=4. From the text:
In our efforts to determine the direct molecular targets of deoxyelephantopin we first performed a gel-based competitive in situ proteomic profiling assay[41] […] While the greater conformational flexibility of probe 24c could potentially lead to more promiscuous target engagement relatively to deoxyelephantopin, it was favoured based on the fact that an alkyne moiety appended to the rigid scaffold of deoxyelephantopin may hinder some of its interactions. MCF7 cells were pretreated with various concentrations of deoxyelephantopin for 4 h, harvested, lysed and the lysates were treated with the fluorogenic probe 24c-Cy3 (10 μM; Supplementary Fig. 10). […] Furthermore, cells were pretreated with 20 μM concentration of deoxyelephantopin or 24c and the proteomic profiles were compared (Fig. 6b, Supplementary Fig. 11). Multiple bands were detected that were equally competed by both DEP and 24c, thus again confirming that 24c can be used as an acceptable clickable analogue of deoxyelephantopin in pulldown assays. Having established the optimal labelling conditions by SDS–PAGE, we next carried out a mass spectrometry-based competitive profiling assay[42] coupled with the method of stable isotope labelling of amino acids in culture (SILAC)[43]. […]
Figure 6 Proteome-wide identification of deoxyelephantopin targets. […] Quantification was performed using label-free quantification (LFQ) method (n=4). […]

T1 sequence (O95881 27-172): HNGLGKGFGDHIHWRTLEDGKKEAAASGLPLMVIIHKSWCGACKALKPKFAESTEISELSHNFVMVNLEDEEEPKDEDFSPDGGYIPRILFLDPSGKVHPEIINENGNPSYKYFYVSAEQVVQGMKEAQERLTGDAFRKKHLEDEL

Take `C=C(C)C(=O)O[C@H]1CC2=C[C@@H](C/C(C)=C/[C@H]3OC(=O)C(=C)[C@H]13)OC2=O` [deoxyelephantopin]: the “LFQ ratio 20 µM Deoxyelephantopin/DMSO with 24c” value was 0.0425.
